From patent publication US10112945B2, “Fused quinoline compunds as PI3K, mTOR inhibitors” (ADVENCHEN PHARMACEUTICALS, NANJING LTD., priority 2014, dated 2018)

Legend:
pi3K = assay: In vitro kinase inhibition, pi3K (Millipore/Merck kinases panel screening); format: biochemical; conditions: compound at 0.03 μM; scaffold drawing 7 series
Procedure: (§1) In vitro kinase inhibition activities included Pi3k and mTor activities can be tested with Millipore/Merck KGA of Europe in their kinases panel screening. Animal antitumor activity testing can be conducted by various cancer xenograft models for a compound of formula I.
(§2) The following compounds or a pharmaceutically acceptable salt thereof, but not limited, can also be prepared similarly according to the methods described in Scheme I-Scheme II. They are also tested for the inhibitions on mTor or pi3k kinases, or tumor cell lines.

mTor = molecular target: T1, mTor (Homo sapiens, UniProt P42345); assay: In vitro kinase inhibition, mTor (Millipore/Merck kinases panel screening); format: biochemical; conditions: compound at 0.03 μM; scaffold drawing 7 series
T1 construct: purchased Millipore/Merck KGA
Procedure: as §1, §2

| Compound | pi3K % activity @0.03 μM (pi3K) [%] | activity at 0.03 µM (mTor) [%] | mTor % activity @0.03 μM (mTor) [%] |
| --- | --- | --- | --- |
| 2-(4-methylpiperazin-1-yl)-N-(5-{16-[3-(trifluoromethyl)phenyl]-8,11,13,14,16-pentaazatetra-cyclo[8.6.0.0^2,7.0^11,15]hexadeca-1(10),2,4,6,8,12,14-heptaen-4-yl}pyridin-2-yl)acetamide | 97 | – | 46 |
| 2-[(5-{16-[3-(trifluoromethyl)phenyl]-8,11,13,14,16-pentaazatetracyclo-[8.6.0.0^2,7.0^11,15]-hexadeca-1(10),2,4,6,8,12,14-heptaen-4-yl}pyridin-2-yl-amino]ethan-1-ol | 96 | – | 8 |
| 12-ethyl-16-[4-fluoro-3 -(trifluoromethyl)phenyl]-4-8,11,13,14,16-pentaazatetracyclo[8.6.0.0^2,7.0^11,15]hexadeca-1(10),2,4,6,8,12,14-heptaene [3-pyridine, 4-F, CH2CH3] | – | – | 73 |
| CN(C)CC(=O)Nc1ccc(-c2ccc3ncc4c(c3c2)n(-c2cccc(C(F)(F)F)c2)c2nncn42)cn1 [2-(dimethylamino)-N-(5-{16-[3-(trifluoromethyl)phenyl]-8,11,13,14,16-pentaazatetracyclo-[8.6.0.0^2,7.0^11,15]hexadeca-1(10),2,4,6,8,12,14-heptaen-4-yl}pyridin-2-yl)acetamide] | 89 | 7 | – |
| O=C(CN1CCOCC1)Nc1ccc(-c2ccc3ncc4c(c3c2)n(-c2cccc(C(F)(F)F)c2)c2nncn42)cn1 [2-(morpholin-4-yl)-N-(5-{16-[3-(trifluoromethyl)phenyl]-8,11,13,14,16-pentaazatetracyclo-[8.6.0.0^2,7.0^11,15]hexadeca-1(10),2,4,6,8,12,14-heptaen-4-yl}pyridin-2-yl)acetamide] | 95 | 31 | – |
| Fc1ccccc1-c1ccc2ncc3c(c2c1)n(-c1ccc(Cl)c(C(F)(F)F)c1)c1nncn31 [2-Flurophenyl, 4-Cl, H, 16-[4-chloro-3-(trifluoromethyl)phenyl]-4-(2-fluorophenyl)-8,11,13,14,16-pentaazatetracyclo-[8.6.0.0^2,7.0^11,15]hexadeca-1(10),2,4,6,8,12,14-heptaene] | – | 55 | – |
| OCCNc1ccc(-c2ccc3ncc4c(c3c2)n(-c2ccc(Cl)c(C(F)(F)F)c2)c2nncn42)cn1 [2-[(5-{16-[4-chloro-3-(trifluoromethyl)phenyl]-8,11,13,14,16-pentaazatetracyclo-[8.6.0.0^2,7.0^11,15]-hexadeca-1(10),2,4,6,8,12,14-heptaen-4-yl}pyridin-2-yl)amino]ethanol] | 82 | -4 | – |
| NCC(=O)Nc1ccc(-c2ccc3ncc4c(c3c2)n(-c2ccc(Cl)c(C(F)(F)F)c2)c2nncn42)cn1 [2-amino-N-(5-{16-[4-chloro-3-(trifluoromethyl)phenyl]-8,11,13,14,16-pentaazatetracyclo-[8.6.0.0^2,7.0^11,15]hexadeca-1(10),2,4,6,8,12,14-heptaen-4-yl}pyridin-2-yl)acetamide] | 83 | 9 | – |
| Fc1ccc(-c2ccc3ncc4c(c3c2)n(-c2ccc(Cl)c(C(F)(F)F)c2)c2nncn42)cc1F [3,4-Diflurophenyl, 4-Cl, H, 16-[4-chloro-3-(trifluoromethyl)phenyl]-4-(3,4-difluorophenyl)-8,11,13,14,16-pentaazatetra-cyclo-[8.6.0.0^2,7.0^11,15]hexadeca-1(10),2,4,6,8,12,14-heptaene] | – | – | 31 |
| Fc1cccc(-c2ccc3ncc4c(c3c2)n(-c2ccc(Cl)c(C(F)(F)F)c2)c2nncn42)c1 [3-Flurophenyl, 4-Cl, H] | – | – | 46 |
| FC(F)(F)c1cc(-n2c3c4cc(-c5cccnc5)ccc4ncc3n3cnnc23)ccc1Cl [3-pyridine, 4-Cl, H, 16-[4-chloro-3-(trifluoromethyl)phenyl]-4-(pyridin-3-yl)-8,11,13,14,16-pentaazatetracyclo-[8.6.0.0^2,7.0^11,15]hexadeca-1(10),2,4,6,8,12,14-heptaene] | 77 | 19 | – |
| FC(F)(F)c1cccc(-n2c3c4cc(-c5cccnc5)ccc4ncc3n3cnnc23)c1 [3-pyridine, H, H, 16-(3-(trifluoromethyl)phenyl)-4-(pyridin-3-yl)-8,11,13,14,16-pentaazatetracyclo-[8.6.0.0^2,7.0^11,15]hexadeca-1(10),2,4,6,8,12,14-heptaene] | 70 | 0 | – |
| FC(F)(F)c1cc(-n2c3c4cc(-c5cnc6ccccc6c5)ccc4ncc3n3cnnc23)cc(C(F)(F)F)c1 [3-quinoline, 5-CF3, H, 16-[3,5-(trifluoromethyl)phenyl]-4-(quinolin-3yl)-8,11,13,14,16-pentaazatetracyclo-[8.6.0.0^2,7.0^11,15]hexadeca-1(10),2,4,6,8,12,14-heptaene] | – | – | 0 |

The next lines start with results.

| pi3K % activity @0.03 μM (pi3K) [%] | activity at 0.03 µM (mTor) [%] | Compound | mTor % activity @0.03 μM (mTor) [%] |
| --- | --- | --- | --- |
| – | -8 | Fc1cc(-n2c3c4cc(-c5cnc6ccccc6c5)ccc4ncc3n3cnnc23)cc(C(F)(F)F)c1 [3-quinoline, 5-F, H, 16-[3-fluoro-5-(trifluoromethyl)phenyl]-4-(quinolin-3yl)-8,11,13,14,16-pentaazatetracyclo-[8.6.0.0^2,7.0^11,15]hexadeca-1(10),2,4,6,8,12,14-heptaene] | – |
| – | 0 | Fc1ccc(C(F)(F)F)cc1-n1c2c3cc(-c4cnc5ccccc5c4)ccc3ncc2n2cnnc12 [3-quinoline, 6-F, H, 16-[2-fluoro-5-(trifluoromethyl)phenyl]-4-(quinolin-3yl)-8,11,13,14,16-pentaazatetracyclo-[8.6.0.0^2,7.0^11,15]hexadeca-1(10),2,4,6,8,12,14-heptaene] | – |
| – | 5 | CC(=O)Nc1ccc(-c2ccc3ncc4c(c3c2)n(-c2ccc(Cl)c(C(F)(F)F)c2)c2nncn42)cn1 [N-(5-pyridin-2-yl)acetamide, 4-Cl, H, N-(5-{16-[4-chloro-3-(trifluoromethyl)phenyl]-8,11,13,14,16-pentaazatetracyclo-[8.6.0.0^2,7.0^11,15]hexadeca-1(10),2,4,6,8,12,14-heptaen-4-yl}pyridin-2-yl)acetamide] | – |
| – | 14 | O=C(CN1CCC(O)CC1)Nc1ccc(-c2ccc3ncc4c(c3c2)n(-c2ccc(Cl)c(C(F)(F)F)c2)c2nncn42)cn1 [N-(5-{16-[4-chloro-3-(trifluoromethyl)phenyl]-8,11,13,14,16-pentaazatetracyclo[8.6.0.0^2,7.0^11,15]-hexadeca-1(10),2,4,6,8,12,14-heptaen-4-yl}pyridin-2-yl)-2-(4-hydroxypiperidin-1-yl)acetamide] | – |
| – | 57 | O=C1CCN(CC(=O)Nc2ccc(-c3ccc4ncc5c(c4c3)n(-c3ccc(Cl)c(C(F)(F)F)c3)c3nncn53)cn2)CC1 [N-(5-{16-[4-chloro-3-(trifluoromethyl)phenyl]-8,11,13,14,16-pentaazatetracyclo[8.6.0.0^2,7.0^11,15]-hexadeca-1(10),2,4,6,8,12,14-heptaen-4-yl}pyridin-2-yl)-2-(4-oxopiperidin-1-yl)acetamide] | – |
| – | 15 | CN(C)CC(=O)Nc1ccc(-c2ccc3ncc4c(c3c2)n(-c2ccc(Cl)c(C(F)(F)F)c2)c2nncn42)cn1 [N-(5-{16-[4-chloro-3-(trifluoromethyl)phenyl]-8,11,13,14,16-pentaazatetracyclo[8.6.0.0^2,7.0^11,15]-hexadeca-1(10),2,4,6,8,12,14-heptaen-4-yl}pyridin-2-yl)-2-(dimethylamino)acetamide] | – |
